Reference: patent publication US9403843B2, “Cysteine protease inhibitors and uses thereof” (The Trustees of Columbia University in the City of New York, priority 2012, dated 2016)

Tests used:
APP/PS1 mice = test: Behavioral rescue assays (contextual fear memory, 2-day RAWM reference memory); assay type: in vivo
Excerpt: APP/PS1-vehicle: n=15; APP/PS1-67: n=6; APP/PS1-30a: n=10; WT-vehicle: n=15; WT-67=5; WT-30a: n=8, APP/PS1-33: n=11; WT-33: n=8, APP/PS1-50: n=10; WT-50: n=8. P<0.05 in all transgenic groups treated with compound compared to their respective vehicle-treated transgenics.
APP/PS1-vehicle: n=17; APP/PS1-67: n=9; APP/PS1-30a: n=10; WT-vehicle: n=18; WT-67=9; WT-30a: n=9, APP/PS1-33: n=10; WT-33: n=9, APP/PS1-50: n=11; WT-50: n=9.
The ability of compounds to rescue the defects in associative and reference memory in 3 month old APP/PS1 animals was assessed. Capability of ameliorating the defects in contextual fear memory was tested via i.p. administration (FIG. 12). In the 2-day RAWM test, daily injections of the 67, 30a, 33 and 50 from the 2nd month of age were beneficial against the loss of contextual fear memory and reference memory.
Impact of chronic treatment on against memory loss in older APP/PS1 mice (7 months of age) with a more severe plaque load was also investigated. Compounds 67, 33 and 50 were beneficial against memory impairment following chronic administration (FIG. 13).
The ability of a prodrug to rescue the defects in associative and reference memory in 3 month old APP/PS1 animals was assessed. […] Thus, the esterification seems to improve PK but it spoils PD parameters. Compound 89 ameliorates both LTP and memory in 3 month old APP/PS1 mice (FIG. 15). Daily treatment with 89 from the age of 2 months until 3 months ameliorated the defect in LTP (A) contextual fear memory (B) and reference memory (C) in APP/PS1 mice. n=10 for all groups. P<0.05 in transgenics treated with compound compared to their respective vehicle-treated transgenics.

Cal1cat vs CathB = test: Competition assay for Cal1 vs CathB using the biotinylated epoxide probe; assay type: binding, rat
[1] = APP/PS1 mice, daily treatment from 2 until 7 months

**Q.** How did the reference memory (APP/PS1 mice; 3 month old APP/PS1 mice, 2-day RAWM, daily from 2 months) turn out when `O=C(O)C1OC1C(=O)N[C@@H](Cc1cscn1)C(=O)Nc1nc(-c2ccc(F)cc2)cs1` (stereo in doubt) [Compound 33, (2S,3S)-3-((S)-1-(4-(4-fluorophenyl)thiazol-2-ylamino)-1-oxo-3-(thiazol-4-yl)propan-2-ylcarbamoyl)oxirane-2-carboxylic acid] was run?
**A.** The reference memory was “beneficial”.

**Q.** What about the contextual fear memory (APP/PS1 mice; 3 month old APP/PS1 mice, daily i.p. from 2 months) of the same compound?
**A.** Its contextual fear memory is “beneficial”.

**Q.** And the memory impairment (APP/PS1 mice; 7 month old APP/PS1 mice, chronic administration)?
**A.** Its memory impairment is “beneficial”.

**Q.** And the contextual fear memory (APP/PS1 mice; [1])?
**A.** Its contextual fear memory is “ameliorated”.

**Q.** And the reference memory (APP/PS1 mice; [1])?
**A.** The reference memory was “ameliorated”.

**Q.** What about the “blocking of active site modification by probe 27 (western blot signal)” value (Cal1cat vs CathB; 10 min pre-treatment, then 20 min with 27) of the same compound?
**A.** The value was “little change in the CathB signal”.

**Q.** What about the “selectivity for Cal1cat (ratio of Cal1cat versus CathB band intensities)” value (Cal1cat vs CathB; ratio for probe 27 alone set as 1.0, inhibitor 5 μM) of the same compound?
**A.** The value was “highest selectivity”.
